Patent US20190029257A1, “APPLICATION FOR HERBICIDE-TOLERANT PROTEIN” (BEIJING DABEINONG TECHNOLOGY GROUP CO., LTD., priority 2016, published 2019)

System: transgenic maize plants (ALT-1, ALT-2 and ALT-3)
Test: Halosulfuron-methyl tolerance of maize plants
Type: in vivo
Settings: summary of Table 4
Method: Zm cytoplasmic ALT-1-02 maize plants, Zm chloroplastic ALT-1-02 maize plants, Zm cytoplasmic ALT-2-02 maize plants, Zm chloroplastic ALT-2-02 maize plants, Zm cytoplasmic ALT-3-02 maize plants, Zm chloroplastic ALT-3-02 maize plants and wild-type maize plants were respectively taken and sprayed with halosulfuron-methyl (36 g ai/ha, 4-fold field concentration) and a blank solvent (water). The damage degree caused by the herbicide was measured for each plant according to the plant growth status 3 days after spraying (3 DAT), 7 days after spraying (7 DAT), 14 days after spraying (14 DAT) and 21 days after spraying (21 DAT), respectively: considering a growth status equivalent to that of the untreated plants as having a damage degree of 0%; considering conditions of leaves being partially chlorotic and yellow but substantially not affecting the plant normal growth as having a damage degree of 50%; and considering the whole plant being purple and dying as having a damage degree of 100%. […]

Question: `COC(=O)c1c(Cl)nn(C)c1S(=O)(=O)NC(=O)Nc1nc(OC)cc(OC)n1` [halosulfuron-methyl, 3-chlorine-5-(4,6-dimethoxypyrimidine-2-aminocarbonylaminosulphonyl)-1-methylpyrazole-4-carboxylic acid methyl ester] was tested. Which “tolerance of the plants to the herbicide” value did it give?
Answer: high level of halosulfuron-methyl herbicide tolerance
